These results are taken from paper doi:10.1101/2023.07.10.548257 (bioRxiv, 2024).

Structures are written as SMILES.

As usually defined, the EC50 is the concentration at which the effect is half-maximal. The low end stands for greater potency, the high end for weaker potency.

The target in the assay is T1, full-length SHP2^T42A (Homo sapiens, UniProt Q06124, T42A).
T1 construct: Full-length SHP2 constructs were diluted in assay buffer; His6-TEV (N, cleaved yes); made in house; host or cells: E. coli BL21(DE3)
T1 sequence (Q06124 1-593 T42A): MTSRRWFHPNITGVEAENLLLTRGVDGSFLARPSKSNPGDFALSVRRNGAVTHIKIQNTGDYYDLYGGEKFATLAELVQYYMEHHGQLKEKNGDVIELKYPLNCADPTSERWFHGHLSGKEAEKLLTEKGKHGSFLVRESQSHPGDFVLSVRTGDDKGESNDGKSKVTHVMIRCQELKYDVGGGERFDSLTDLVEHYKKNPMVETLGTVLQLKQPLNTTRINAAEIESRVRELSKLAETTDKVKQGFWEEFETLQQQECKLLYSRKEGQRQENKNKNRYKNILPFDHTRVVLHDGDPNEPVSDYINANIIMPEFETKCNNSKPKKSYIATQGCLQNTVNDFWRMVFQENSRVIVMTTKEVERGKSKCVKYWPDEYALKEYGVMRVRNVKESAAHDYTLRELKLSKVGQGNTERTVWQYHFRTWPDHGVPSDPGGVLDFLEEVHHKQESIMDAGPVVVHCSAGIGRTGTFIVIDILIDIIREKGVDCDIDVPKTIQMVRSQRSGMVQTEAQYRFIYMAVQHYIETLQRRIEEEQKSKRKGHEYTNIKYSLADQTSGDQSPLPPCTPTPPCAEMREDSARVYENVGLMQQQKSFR
Nature of the assay: SHP2 activation assay using phosphopeptides (DiFMUP), SHP2 T42A. It counts as biochemical. Particulars: activation of full-length SHP2 T42A (0.05 nM) by phosphopeptide; DiFMUP substrate; HEPES pH 7.2 assay buffer; mean of N (column N).
On to `CC[C@H](C)[C@H](NC(=O)[C@@H](NC(=O)[C@H](C)NC(=O)[C@H](Cc1ccc(OP(=O)(O)O)cc1)NC(=O)[C@@H](NC(=O)[C@@H]1CCCN1C(=O)[C@H](CCC(=O)O)NC(=O)[C@@H]1CCCN1C(=O)[C@H](CO)NC(=O)[C@@H](NC(C)=O)C(C)C)[C@@H](C)CC)[C@@H](C)O)C(=O)N[C@@H](CC(=O)O)C(=O)N[C@@H](CC(=O)O)C(=O)N[C@@H](CC(C)C)C(N)=O`, for which the response was half-maximal at 6.96 µM (EC50).
The value for `CC(=O)N[C@@H](CO)C(=O)N[C@H](C(=O)NCC(=O)N[C@@H](CO)C(=O)N[C@H](C(=O)N[C@@H](CC(=O)O)C(=O)N[C@@H](Cc1ccc(OP(=O)(O)O)cc1)C(=O)N[C@@H](CC(C)C)C(=O)N[C@@H](C)C(=O)N[C@@H](CC(C)C)C(=O)N[C@@H](CC(=O)O)C(=O)N[C@@H](Cc1ccccc1)C(=O)N[C@@H](CCC(N)=O)C(N)=O)C(C)C)[C@@H](C)O` was 0.902 µM; that for `CC[C@H](C)[C@H](NC(=O)[C@H](Cc1ccc(OP(=O)(O)O)cc1)NC(=O)[C@H](CC(N)=O)NC(=O)[C@H](CC(C)C)NC(=O)CNC(=O)[C@H](CC(N)=O)NC(=O)[C@H](CCC(=O)O)NC(=O)[C@H](CC(C)C)NC(C)=O)C(=O)N[C@@H](CC(=O)O)C(=O)N[C@@H](CC(C)C)C(=O)N[C@@H](CC(=O)O)C(=O)N[C@@H](CC(C)C)C(=O)N[C@H](C(N)=O)C(C)C` was 0.581 µM; that for `CC[C@H](C)[C@H](NC(=O)[C@H](CC(N)=O)NC(=O)[C@@H](NC(=O)[C@H](Cc1ccc(OP(=O)(O)O)cc1)NC(=O)[C@H](CCC(=O)O)NC(=O)CNC(=O)[C@@H]1CCCN1C(=O)[C@H](CO)NC(=O)[C@H](CCCCN)NC(=O)[C@@H]1CCCN1C(C)=O)C(C)C)C(=O)N[C@@H](CCC(=O)O)C(=O)N[C@@H](Cc1ccccc1)C(=O)NCC(N)=O` was 20 µM.
In turn, `CSCC[C@H](NC(=O)[C@H](CC(C)C)NC(=O)[C@H](CCC(N)=O)NC(=O)[C@H](C)NC(=O)[C@H](Cc1ccc(OP(=O)(O)O)cc1)NC(=O)[C@H](CC(N)=O)NC(=O)[C@H](CC(C)C)NC(=O)[C@H](C)NC(=O)[C@H](C)NC(=O)[C@H](CCCCN)NC(=O)[C@H](CCCCN)NC(C)=O)C(=O)N[C@@H](Cc1ccccc1)C(=O)N1CCC[C@H]1C(N)=O` displayed an EC50 of 0.735 µM.
The value for `CC(=O)N[C@@H](C)C(=O)N[C@@H](CCCCN)C(=O)N[C@@H](CO)C(=O)NCC(=O)N[C@@H](C)C(=O)N[C@H](C(=O)N[C@@H](Cc1ccc(OP(=O)(O)O)cc1)C(=O)N[C@@H](CO)C(=O)N[C@@H](CCC(=O)O)C(=O)N[C@@H](CC(C)C)C(=O)N[C@@H](CC(N)=O)C(=O)N[C@@H](Cc1ccccc1)C(=O)NCC(N)=O)C(C)C` was 32.7 µM; that for `CC(=O)N1CCC[C@H]1C(=O)N[C@H](C(=O)N[C@@H](Cc1ccccc1)C(=O)N[C@@H](CO)C(=O)N[C@H](C(=O)N[C@@H](CC(=O)O)C(=O)N[C@@H](Cc1ccc(OP(=O)(O)O)cc1)C(=O)NCC(=O)N[C@@H](CCC(=O)O)C(=O)N[C@@H](CC(C)C)C(=O)N[C@@H](CC(=O)O)C(=O)N[C@@H](Cc1ccccc1)C(=O)N[C@@H](CCC(N)=O)C(N)=O)C(C)C)C(C)C` was 2.89 µM; that for `CC[C@H](C)[C@H](NC(=O)[C@@H](NC(=O)[C@H](C)NC(=O)[C@H](Cc1ccc(OP(=O)(O)O)cc1)NC(=O)[C@H](CCC(=O)O)NC(=O)[C@@H](NC(=O)[C@H](CCC(N)=O)NC(=O)[C@H](CCC(=O)O)NC(=O)[C@@H]1CCCN1C(=O)[C@@H](NC(C)=O)C(C)C)[C@@H](C)O)[C@@H](C)O)C(=O)N[C@H](C(=O)N[C@@H](Cc1ccccc1)C(=O)N1CCC[C@H]1C(N)=O)C(C)C` was 0.88 µM.
`CC[C@H](C)[C@H](NC(=O)[C@H](CC(=O)O)NC(=O)[C@H](C)NC(=O)[C@H](Cc1ccc(OP(=O)(O)O)cc1)NC(=O)[C@H](CCCCN)NC(=O)[C@@H](NC(=O)[C@H](CC(=O)O)NC(=O)CNC(=O)[C@H](CCCCN)NC(=O)[C@H](CCSC)NC(C)=O)C(C)C)C(=O)N[C@@H](CCC(=O)O)C(=O)N[C@@H](CO)C(=O)N[C@@H](CO)C(N)=O`: a half-maximal effect (EC50) was put at 15.1 µM.
